Test results: patent US20250092065A1, “2-(INDAZOL-5-YL)-6-(PIPERIDIN-4-YL)-1,7-NAPHTHYRIDINE DERIVATIVES AND RELATED COMPOUNDS AS MODULATORS FOR SPLICING NUCLEIC ACIDS AND FOR THE TREATMENT OF PROLIFERATIVE DISEASES” (REMIX THERAPEUTICS INC., priority 2022, published 2025)
pIC50: −log10 of the molar value. Like-named read-outs stand apart in the source and are kept apart here.

Assays:
HTT mRNA = assay: RT-qPCR splicing assay, HTT mRNA canonical (CJ) and alternative (AJ) junction; type: cell-based, human; conditions: Homo sapiens
Procedure, shortened: (§1)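 A673 or K562 cells treated 24 h at 37 °C with 11-point 3-fold dilutions (top final 10 uM, DMSO ≤0.25%). Lysates analysed by one-step RT-qPCR for canonical (CJ) and alternative-exon (AJ) junctions, normalized to GAPDH, GUSB or PPIA. ΔΔCt vs DMSO, RQ = 2^(−ΔΔCt), expressed as percentage response.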

K562 cells = assay: Cell Titer Glo 2.0 cell viability (toxicity) assay, K562; conditions: 500 cells/well, 72 hours
MYB mRNA = assay: RT-qPCR splicing assay, MYB mRNA canonical (CJ) and alternative (AJ) junction; type: cell-based, human; conditions: Homo sapiens
Procedure, shortened: as §1

Target C [1] = assay: RT-qPCR canonical junction panel assay, Target C mRNA; type: cell-based; conditions: Table 4, read-out: Target C IC50 (decrease in CJ mRNA levels)
Experimental: Compounds described herein were used to modulate RNA transcript abundance in cells. The expression of a target mRNA was measured by detecting the formation of an exon-exon junction in the canonical transcript (CJ). A compound mediated exon-inclusion event was detected by observing an increase in formation of a new junction with an alternative exon (AJ). Real-time qPCR assays were used to detect these splicing switches and interrogate the potency of various compounds towards different target genes. A high-throughput real time quantitative PCR (RT-qPCR) assay was developed to measure these two isoforms of the mRNA (CJ and AJ) for exemplary genes, such as HTT, SMN2, and MYB, together with a control housekeeping gene, GAPDH or GUSB or PPIA, used for normalization. Briefly, the A673 or K562 cell line was treated with various compounds described herein (e.g., compounds of Formula (I)). After treatment, the levels of the HTT, MYB, or SMN2 mRNA targets were determined from each sample of cell lysate by cDNA synthesis followed by qPCR.
The data analysis was performed by first determining the ΔCt vs the housekeeper gene. This ΔCt was then normalized against the DMSO control (ΔΔCt) and converted to RQ (relative quantification) using the 2^(−ΔΔCt) equation. The RQ were then converted to a percentage response by arbitrarily setting an assay window of 3.5 and 4.0 ΔCt for HTT-CJ and MYB-CJ respectively and an assay window of 9 and 3 ΔCt for HTT-AJ and MYB-AJ in 96 well format (50,000 K562 cells/well and 15,000 A673 cells per well) and an assay window of 3 and 4 ΔCt for HTT-CJ and MYB-CJ respectively and an assay window of 5 and 3 ΔCt for HTT-AJ and MYB-AJ respectively in 384 well format (8,000 K562 cells/well example). […] The percentage response was then fitted to the 4 parametric logistic equation to evaluate the concentration dependence of compound treatment. The increase in AJ mRNA is reported as AC50 (compound concentration having 50% response in AJ increase) while the decrease in CJ mRNA levels is reported as IC50 (compound concentration having […] in CJ decrease).
Additional studies were carried out for a larger panel of genes using the protocol provided above. The junction between flanking upstream and downstream exons was used to design canonical junction Qpcr assays. At least one of the forward primer, reverse primer or the CY5-labeled 5′ nuclease probe (with 3′ quencher such as ZEN/Iowa Black FQ) was designed to overlap with the exon junction to capture the CJ Mrna transcript. BLAST was used to confirm the specificity of the probeset and parameters suCH As melting temperature, GC content, amplicon size, and primer dimer formation are considered during their design. Data for the decrease in CJ Mrna levels for four exemplary genes (HTT, SMN2, MYB, and Target C) analyzed in this panel are reported as IC50 (compound concentration having […] in CJ decrease).

MYB = assay: HiBiT protein abundance assay, MYB (K562 HiBiT knock-in); type: cell-based, human; conditions: HiBiT knock-in K562 cells, 24 hours, top dose 10 μM
Procedure, shortened: (§2)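 Tagged-protein levels were measured as HiBiT/LgBiT luminescence in lysed K562 knock-in cells exposed to serially diluted compound (up to 10 μM final) for 24 hours. A four-parameter logistic regression of control-normalized signal yielded the IC50.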

HTT = assay: HiBiT protein abundance assay, HTT (K562 HiBiT knock-in); type: cell-based, human; conditions: HiBiT knock-in K562 cells, 24 hours, top dose 10 μM
Procedure, shortened: as §2

Target C [2] = assay: HiBiT protein abundance assay, Target C (K562 HiBiT knock-in); type: cell-based, human; conditions: HiBiT knock-in K562 cells, 24 hours, top dose 10 μM
Procedure, shortened: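 K562 HiBiT knock-in cells (10000/well) were treated 24 h at 37° C with a 10-point 3-fold dilution series (top 10 μM final, ≤0.25% DMSO). HiBiT luminescence was read after lytic LgBiT detection. Percent response used unmodified K562 and DMSO-treated knock-in controls, and IC50 came from a four-parameter fit at 50% of untreated.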

SMN2 mRNA = assay: RT-qPCR splicing assay, SMN2 mRNA; type: cell-based, human; conditions: Homo sapiens, canonical junction qPCR panel, Table 4; read-out: SMN2 IC50 (decrease in CJ mRNA levels)
Procedure, shortened: as §1

[3] = RT-qPCR, HTT alternative junction mRNA increase, read-out: HTT AJ (increase in alternative junction mRNA, AC50)
[4] = RT-qPCR, HTT canonical junction mRNA decrease, read-out: HTT CJ (decrease in canonical junction mRNA, IC50)
[5] = canonical junction qPCR panel, Table 4, read-out: HTT IC50 (decrease in CJ mRNA levels)
[6] = RT-qPCR, MYB alternative junction mRNA increase, read-out: MYB AJ (increase in alternative junction mRNA, AC50)
[7] = RT-qPCR, MYB canonical junction mRNA decrease, read-out: MYB CJ (decrease in canonical junction mRNA, IC50)
[8] = canonical junction qPCR panel, Table 4, read-out: MYB IC50 (decrease in CJ mRNA levels)
[9] = HTT alternative junction mRNA, RT-qPCR, read-out: HTT AJ (increase in AJ mRNA, AC50)
[10] = HTT canonical junction mRNA, RT-qPCR, read-out: HTT CJ (decrease in CJ mRNA levels, IC50)
[11] = MYB alternative junction mRNA, RT-qPCR, read-out: MYB AJ (increase in AJ mRNA, AC50)
[12] = MYB canonical junction mRNA, RT-qPCR, read-out: MYB CJ (decrease in CJ mRNA levels, IC50)

| Compound | AC50 (HTT mRNA; [3]) | pIC50 (HTT mRNA; [4]) | pIC50 (HTT mRNA; [5]) | Effect of Exemplary Compounds on Cell Viability, K562 (K562 cells) | AC50 (MYB mRNA; [6]) | pIC50 (MYB mRNA; [7]) | pIC50 (MYB mRNA; [8]) | pIC50 (Target C [1]) | AC50 (HTT mRNA; [9]) | pIC50 (HTT mRNA; [10]) | pIC50 (MYB) | pIC50 (HTT) | pIC50 (Target C [2]) | AC50 (MYB mRNA; [11]) | pIC50 (MYB mRNA; [12]) | pIC50 (SMN2 mRNA) |
| --- | --- | --- | --- | --- | --- | --- | --- | --- | --- | --- | --- | --- | --- | --- | --- | --- |
| Cc1c(O)c(-c2nc(C3CCC3)c3cc(N4C[C@H](C)N[C@@H](C)C4)ccc3n2)cc2cn(C)nc12 (single isomer, unassigned) [Compound 794] | 1000 to 10000 nM | < 5.00 | < 5.00 | B (B represents 100-1000 nM) | 100 to 1000 nM | 6.00 to 7.00 | 6.00 to 7.00 | < 5.00 | – | – | – | – | – | – | – | – |
| Cc1cn2nc(-c3ncc4cc(N5C[C@H](C)N[C@@H](C)C5)ccc4n3)cc(C)c2n1 (single isomer, unassigned) [Compound 798] | > 10000 nM | < 5.00 | < 5.00 | C (C represents 1000-9999 nM) | 100 to 1000 nM | 5.00 to 6.00 | 5.00 to 6.00 | < 5.00 | – | – | – | – | – | – | – | – |
| Cc1nc2c(F)c(O)c(-c3ccc4nc(N5CC[C@@H](NC6CC6)C5)ccc4n3)cc2o1 [Compound 253] | – | – | > 7.00 | A (A represents <100 nM) | – | – | > 7.00 | – | < 100 nM | > 7.00 | > 7.00 | > 7.00 | > 7.00 | < 100 nM | > 7.00 | > 7.00 |
| Cc1nc2c(F)c(O)c(-c3ccc4nc(N5CC[C@H](NC6CC6)C5)ccc4n3)cc2o1 [Compound 254] | – | – | > 7.00 | A (A represents <100 nM) | – | – | > 7.00 | – | < 100 nM | > 7.00 | > 7.00 | > 7.00 | > 7.00 | < 100 nM | > 7.00 | > 7.00 |
| Cc1nc2c(F)c(O)c(-c3ccc4nc(N5CC[C@H](NC(C)(C)C)C5)ccc4n3)cc2o1 [Compound 255] | – | – | > 7.00 | A (A represents <100 nM) | – | – | > 7.00 | – | < 100 nM | > 7.00 | > 7.00 | > 7.00 | > 7.00 | < 100 nM | > 7.00 | > 7.00 |
| Cc1nc2cc(O)c(-c3ccc4nc(N5CC[C@H](NC6(C)CC6)C5)ccc4n3)cc2o1 [Compound 257] | – | – | > 7.00 | B (B represents 100-1000 nM) | – | – | > 7.00 | – | < 100 nM | > 7.00 | > 7.00 | > 7.00 | > 7.00 | < 100 nM | > 7.00 | > 7.00 |
| Cc1nc2cc(O)c(-c3ccc4nc(N5CC[C@@H](NC6(C)CC6)C5)ccc4n3)cc2o1 [Compound 258] | – | – | > 7.00 | C (C represents 1000-9999 nM) | – | – | 6.00 to 7.00 | – | < 100 nM | > 7.00 | 6.00 to 7.00 | 6.00 to 7.00 | 6.00 to 7.00 | 100 to 1000 nM | 6.00 to 7.00 | > 7.00 |
| Cc1c(O)c(-c2ccc3nc(N4CC[C@@H](NC5CC5)C4)ccc3n2)cc2cn(C)nc12 [Compound 259] | – | – | > 7.00 | B (B represents 100-1000 nM) | – | – | > 7.00 | – | < 100 nM | > 7.00 | > 7.00 | > 7.00 | > 7.00 | < 100 nM | > 7.00 | > 7.00 |
| Cc1c(O)c(-c2ccc3nc(N4CC[C@H](NC5CC5)C4)ccc3n2)cc2cn(C)nc12 [Compound 260] | – | – | > 7.00 | B (B represents 100-1000 nM) | – | – | > 7.00 | – | < 100 nM | > 7.00 | > 7.00 | > 7.00 | > 7.00 | < 100 nM | > 7.00 | > 7.00 |
| Cc1c(O)c(-c2nc(C3CCC3)c3cc(N4C[C@@H](C)N[C@@H](C)C4)ccc3n2)cc2cn(C)nc12 [Compound 790, 5-{4-cyclobutyl-6-[(3R,5S)-3,5-dimethylpiperazin-1-yl]quinazolin-2-yl}-2,7-dimethylindazol-6-ol] | > 10000 nM | 5.00 to 6.00 | 5.00 to 6.00 | C (C represents 1000-9999 nM) | 1000 to 10000 nM | 5.00 to 6.00 | 5.00 to 6.00 | < 5.00 | – | – | – | – | – | – | – | – |
| C[C@@H]1CN(c2ccc3nc(-c4cc5cn(C)nc5cc4O)nc(C4CCC4)c3c2)C[C@H](C)N1 [Compound 791, 5-{4-cyclobutyl-6-[(3R,5S)-3,5-dimethylpiperazin-1-yl]quinazolin-2-yl}-2-methylindazol-6-ol] | > 10000 nM | 5.00 to 6.00 | 5.00 to 6.00 | B (B represents 100-1000 nM) | 1000 to 10000 nM | 5.00 to 6.00 | 5.00 to 6.00 | < 5.00 | – | – | – | – | – | – | – | – |
| Cc1c(O)c(-c2ncc3cc(N4CCNC5(CC5)C4)ccc3n2)cc2cn(C)nc12 [Compound 792, 5-(6-{4,7-diazaspiro[2.5]octan-7-yl}quinazolin-2-yl)-2,7-dimethylindazol-6-ol] | 1000 to 10000 nM | 6.00 to 7.00 | 6.00 to 7.00 | B (B represents 100-1000 nM) | 100 to 1000 nM | 6.00 to 7.00 | 6.00 to 7.00 | 5.00 to 6.00 | – | – | – | – | – | – | – | – |
| Cc1nc(-c2cc3cn(C)nc3c(C)c2O)nc2ccc(N3CCNC4(CC4)C3)cc12 [Compound 793, 5-(6-{4,7-diazaspiro[2.5]octan-7-yl}-4-methylquinazolin-2-yl)-2,7-dimethylindazol-6-ol] | 1000 to 10000 nM | 5.00 to 6.00 | 5.00 to 6.00 | B (B represents 100-1000 nM) | 100 to 1000 nM | 6.00 to 7.00 | 6.00 to 7.00 | < 5.00 | – | – | – | – | – | – | – | – |
